Marks after values point to notes of the source that are not given here.
What was measured:
Assay type in all cases: cell-based, human
NPC1 promoter [1] = experiment: qHTS of NPC1 Promoter-Luciferase Reporter Gene Assay (firefly, Huh7); details: 24 hours
Description: (§1) qHTS of NPC1 Promoter-Luciferase Reporter Gene Assay. For the second primary screen, a promoter assay was developed by engineering a vector using approximately 1.5 kb of the NPC1 promoter to drive the expression of the firefly luciferase reporter gene. Thus, NPC1 promoter activation results in luciferase expression. This vector was used to generate Huh7 cell lines stably expressing the NPC1-luciferase vector. […] Cells were plated for assays in OPTI-MEM I reduced-serum medium supplemented with 10% FBS at 1,500 cells/well in 5 μL in 1,536-well white opaque plates with 23 nL/well of test compound in DMSO solution. The assay plates were incubated at 37° C. for 24 hours, after which 3 μL/well BriteLite plus luciferase detection reagent mixture (Perkin Elmer) was added. Luminescence signal was measured in a ViewLux plate reader (Perkin Elmer) after a 10 minute incubation at room temperature.

Rab9 promoter = experiment: qHTS of Rab9 Promoter-Luciferase Reporter Gene Assay (firefly, Huh7); details: 24 hours
Description: as §1, with “Rab9” for “NPC1”, “the” for “the second”, “Rab9-luciferase” for “NPC1-luciferase”

[2] = test system: NPC1 patient cell fibroblasts; experiment: Filipin Staining Assay to Detect Free Cholesterol Accumulation in NPC Cells; details: filipin fluorescence relative to untreated cells; for activity at 1 µM: Homo sapiens, Fibroblast, read-out: % storage at 1 μM
Description: Filipin Staining Assay to Detect Free Cholesterol Accumulation in NPC Cells. Compounds were evaluated for their effect on the NPC1 cellular phenotype by staining treated NPC1 patient cell fibroblasts with filipin, which recognizes free unesterified cholesterol. Compounds that upregulate the NPC1 promoter were expected to reduce the filipin staining in treated NPC1 fibroblasts compared to untreated NPC1 fibroblasts, indicating clearance of unesterified cholesterol. Conversely, inhibitors of the NPC1 promoter were expected to increase filipin staining in wild-type fibroblasts, thus indicating the emergence of an NPC-like phenotype. Briefly, cells were grown in lipoprotein-deficient medium for 3-4 days, and then the medium was replaced and supplemented with test compound plus 50 μg/mL low-density lipoprotein (LDL). After 24-48 hours, cells were stained with filipin and scored under the 40× magnification filter using the integrated morphometry function in the Metavue program (Molecular Devices). Test compounds that decreased the intensity of filipin fluorescence to less than 50% of untreated cells are considered of particular interest.

NPC1 promoter [3] = experiment: Confirmation Assay of NPC1 Promoter Activators: Renilla Luciferase (Huh7); details: Homo sapiens, Huh-7, 24 hours; for Emax: read-out: NPC1-renilla Eff.
Description: Confirmation Assay of NPC1 Promoter Activators: Renilla Luciferase. The confirmation assay was carried out using an assay in which the NPC1 promoter drives the expression of a different luciferase protein from the one used in the primary screen. The NPC1 promoter was cloned in front of the renilla luciferase reporter gene. NPC1 promoter activation results in renilla luciferase expression. This vector was used to generate Huh7 cell lines stably expressing the NPC1-renilla luciferase vector. These cells were propagated and maintained in medium containing RPMI-1640 supplemented with 10% FBS, 2 mM L-glutamine, and 50 μg/mL penicillin/streptomycin. Cells were plated for assays in OPTI-MEM I reduced-serum medium supplemented with 10% FBS at 1,500 cells/well in 5 μL in 1,536-well white opaque plates and then 23 nL/well of compound in DMSO solution were added through pin transfer. The assay plates were incubated at 37° C. for 24 hours. The Amplite luciferase reporter gene assay kit was purchased from ABD Bioquest and prepared/stored according to manufacturer's recommendations. Luminescence signal was measured in a ViewLux plate reader (Perkin Elmer) after a 10 minute incubation at room temperature.

Row | Structure (SMILES) | EC50 (NPC1 promoter [1]) [µM] | NPC1 Eff. (NPC1 promoter [1]) | EC50 (Rab9 promoter) [µM] | Rab9 Eff. (Rab9 promoter) [%] | further results
1 | CCN(CC)S(=O)(=O)c1cccc(NC(=O)c2[nH]c(C)c(C(C)=O)c2C)c1 [Example 2] | 7.7 | 155% | 8.7 | 181 | –
2 | CC(=O)c1c(C)[nH]c(C(=O)Nc2cccc(S(=O)(=O)N3CCCC3)c2)c1C [Example 3] | 6.1 | 112% | 7.7 | 149 | –
3 | CC(=O)c1c(C)[nH]c(C(=O)Nc2cccc(S(=O)(=O)N3CCCCC3)c2)c1C [Example 4] | 2.7 | 163% | 1.7 | 134 | –
4 | CC(=O)c1c(C)[nH]c(C(=O)Nc2cccc(S(=O)(=O)N3CCCCCC3)c2)c1C [Example 5] | 2.7 to 2.9 | 196-205% | 2 | 153 | –
5 | CC(=O)c1c(C)[nH]c(C(=O)Nc2cccc(S(=O)(=O)N3CCN(C)CC3)c2)c1C [Example 6] | – | – | 10.9 | 82 | NPC1 EC50 (NPC1 promoter [1]): Inactive
6 | CC(=O)c1c(C)[nH]c(C(=O)Nc2cccc(S(=O)(=O)N3CCOCC3)c2)c1C [Example 7] | 8.3 | 84% | 12.2 | 122 | –
7 | Cc1cc(C)c(C(=O)Nc2cccc(S(=O)(=O)N(C)C)c2)[nH]1 [Example 8] | 17.2 | 48% | 38.7 | 82 | –
8 | CCc1c(C)[nH]c(C(=O)Nc2cccc(S(=O)(=O)N(C)C)c2)c1C [Example 9] | 8.6 | 47% | – | – | Rab9 EC50 (Rab9 promoter): Inactive
9 | CC(=O)c1c(C)c(C(=O)Nc2cccc(S(=O)(=O)N(C)C)c2)n(C)c1C [Example 10] | 21.6 | 83% | – | – | Rab9 EC50 (Rab9 promoter): Inactive
10 | Cc1ccc(C(=O)Nc2cccc(S(=O)(=O)N(C)C)c2)cc1 [Example 13] | – | – | 6.9 | 54 | NPC1 EC50 (NPC1 promoter [1]): Inactive
11 | Cc1ccccc1C(=O)Nc1cccc(S(=O)(=O)N(C)C)c1 [Example 14] | 4.8 | 51% | 17.3 | 114 | –
12 | Cc1cccc(C(=O)Nc2cccc(S(=O)(=O)N(C)C)c2)c1 [Example 15] | 6.1 | 81% | 19.4 | 75 | –
13 | CN(C)S(=O)(=O)c1cccc(NC(=O)c2ccccc2C(F)(F)F)c1 [Example 16] | 1.2 | 125% | 1.4 | 155 | –
14 | Cc1cccc(C)c1C(=O)Nc1cccc(S(=O)(=O)N(C)C)c1 [Example 17] | 5.4 | 127% | 5.5 | 131 | –
15 | Cc1ccc(C(=O)Nc2cccc(S(=O)(=O)N(C)C)c2)c(C)c1 [Example 18] | 5.4 | 79% | 12.2 | 97 | –
16 | CC(=O)c1cccc(C(=O)Nc2cccc(S(=O)(=O)N(C)C)c2)c1 [Example 19] | 8.6 | 40% | 19.4 | 94 | –
17 | CC(=O)c1ccc(C(=O)Nc2cccc(S(=O)(=O)N(C)C)c2)cc1 [Example 20] | – | – | 10.9 | 110 | NPC1 EC50 (NPC1 promoter [1]): Inactive

Row | Structure (SMILES) | EC50 (NPC1 promoter [1]) [µM] | NPC1 Eff. (NPC1 promoter [1]) | EC50 (Rab9 promoter) [µM] | Rab9 Eff. (Rab9 promoter) [%] | further results
18 | CC(=O)c1c(C)[nH]c(C(=O)Nc2cccc(S(=O)(=O)Nc3cccc(C#N)c3)c2)c1C [Example 31] | – | – | – | – | NPC1 EC50 (NPC1 promoter [1]): Inactive; % storage at 1 μM [2]: 56%
19 | CCc1ccc(NC(=O)c2[nH]c(C)c(C(C)=O)c2C)cc1S(=O)(=O)Nc1cccc(C#N)c1 [Example 33] | 2.7 | 140% | – | – | % storage at 0.1 μM [2]: 43%; % storage at 1 μM [2]: 35%
20 | COc1ccc(NC(=O)c2[nH]c(C)cc2C)cc1S(=O)(=O)Nc1ccc(Br)cc1 [Example 42] | – | – | – | – | EC50 (NPC1 promoter [3]): 2.7 µM; Emax (NPC1 promoter [3]): 119%; activity at 1 µM [2]: 47%; % storage at 0.1 μM [2]: 49%
21 | COc1ccc(NC(=O)c2ccc[nH]2)cc1S(=O)(=O)Nc1ccc(Br)cc1 [Example 43] | – | – | – | – | EC50 (NPC1 promoter [3]): 4.3 µM; Emax (NPC1 promoter [3]): 88%
22 | COc1ccc(NC(=O)c2c(C)c(C(C)=O)c(C)n2C)cc1S(=O)(=O)Nc1ccc(Br)cc1 [Example 44] | – | – | – | – | EC50 (NPC1 promoter [3]): 0.5 µM; Emax (NPC1 promoter [3]): 245%
23 | COc1ccc(NC(=O)c2ccccc2)cc1S(=O)(=O)Nc1ccc(Br)cc1 [Example 45] | – | – | – | – | EC50 (NPC1 promoter [3]): 1.1 µM; Emax (NPC1 promoter [3]): 223%; activity at 1 µM [2]: 60%
24 | COc1ccc(NC(=O)c2c(C)cccc2C)cc1S(=O)(=O)Nc1ccc(Br)cc1 [Example 46] | – | – | – | – | EC50 (NPC1 promoter [3]): 1.1 µM; Emax (NPC1 promoter [3]): 192%; activity at 1 µM [2]: 46%; % storage at 0.1 μM [2]: 26%
25 | COc1ccc(NC(=O)c2cccnc2C)cc1S(=O)(=O)Nc1ccc(Br)cc1 [Example 49] | – | – | – | – | EC50 (NPC1 promoter [3]): 5.5 µM; Emax (NPC1 promoter [3]): 395%; activity at 1 µM [2]: 30%
26 | COc1ccc(NC(=O)c2cccnc2)cc1S(=O)(=O)Nc1ccc(Br)cc1 [Example 51] | – | – | – | – | EC50 (NPC1 promoter [3]): 2.7 µM; Emax (NPC1 promoter [3]): 257%; activity at 1 µM [2]: 29%
27 | COc1ccc(NC(=O)c2[nH]c(C)c(C(C)=O)c2C)cc1S(=O)(=O)C1CCCCCC1 [Example 53] | – | – | – | – | activity at 1 µM [2]: 24%; % storage at 0.1 μM [2]: 55%
28 | CC(=O)c1c(C)[nH]c(C(=O)Nc2ccc(OCCCN(C)C)c(S(=O)(=O)Nc3ccc(Br)cc3)c2)c1C [Example 54] | – | – | – | – | % storage at 1 μM [2]: 60%
29 | COc1ccc(NC(=O)c2ncc[nH]2)cc1S(=O)(=O)Nc1ccc(Br)cc1 [Example 55] | – | – | – | – | % storage at 1 μM [2]: 30%
30 | COc1ccc(NC(=O)c2c[nH]cn2)cc1S(=O)(=O)Nc1ccc(Br)cc1 [Example 56] | – | – | – | – | % storage at 0.1 μM [2]: 50%; % storage at 1 μM [2]: 48%
31 | COc1ccc(NC(=O)c2c[nH]c(-c3ccccc3)n2)cc1S(=O)(=O)Nc1ccc(Br)cc1 [Example 57] | – | – | – | – | % storage at 0.1 μM [2]: 70%; % storage at 1 μM [2]: 41%
32 | COc1ccc(NC(=O)c2[nH]c(C)c(C(C)=O)c2C)cc1S(=O)(=O)Nc1ccc(Cl)cc1 [Example 58] | – | – | – | – | % storage at 1 μM [2]: 58%
33 | COc1ccc(NC(=O)c2[nH]c(C)c(C(C)=O)c2C)cc1S(=O)(=O)C1CCc2ccccc2CC1 [Example 59] | – | – | – | – | activity at 1 µM [2]: 40%

More lines, main results first:

Row | EC50 (NPC1 promoter [1]) [µM] | NPC1 Eff. (NPC1 promoter [1]) | EC50 (Rab9 promoter) [µM] | Rab9 Eff. (Rab9 promoter) [%] | Structure (SMILES) | further results
34 | 15.4 | 71^a % | – | – | CC(=O)c1c(C)[nH]c(C(=O)Nc2cccc(S(=O)(=O)Nc3ccc(Br)c(F)c3)c2)c1C [Example 23] | –
35 | 4.3 | 80% | – | – | CC(=O)c1c(C)[nH]c(C(=O)Nc2cccc(S(=O)(=O)Nc3ccc(Br)cc3)c2)c1C [Example 32] | –
36 | 1.7 | 248% | – | – | CC(=O)c1c(C)[nH]c(C(=O)Nc2ccc(C)c(S(=O)(=O)Nc3ccc(Br)cc3)c2)c1C [Example 34] | –
37 | 0.7 | 208% | – | – | CCc1ccc(NC(=O)c2[nH]c(C)c(C(C)=O)c2C)cc1S(=O)(=O)Nc1ccc(Br)cc1 [Example 35] | –
38 | 3.4 | 259% | – | – | CCc1ccc(NC(=O)c2[nH]c(C)c(C(C)=O)c2C)cc1S(=O)(=O)Nc1ccc(C#N)cc1 [Example 38] | % storage at 1 μM [2]: 62%
39 | 0.9 | 129% | – | – | COc1ccc(NC(=O)c2[nH]c(C)c(C(C)=O)c2C)cc1S(=O)(=O)Nc1cccc(C#N)c1 [Example 40] | % storage at 1 μM [2]: 29%
40 | 8.7 | 100% | – | – | COc1ccc(NC(=O)c2[nH]c(C)c(C(C)=O)c2C)cc1S(=O)(=O)Nc1ccc(C#N)cc1 [Example 41] | % storage at 1 μM [2]: 58%
